This is an account of results in patent publication US9301923B2, “Lipids, lipid compositions, and methods of using them” (NOVARTIS AG, priority 2009, dated 2016).

Usually pKa stands for the negative logarithm of the acid dissociation constant. High values mean a group that holds its proton tightly, low ones a group that gives up its proton readily.

Series [1] in a line: pKa of the lipid by TNS fluorescence. It is filed as physicochemical. The gist of the method: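 Lipid dissolved in ethanol (2 mM stock) and measured with TNS across eight buffers of differing pH, in water at standard temperature and pressure. Normalized fluorescence intensity plotted against pH and points joined by a smooth line to derive pKa, precise to about 0.2 units.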
Another series concerns Factor VII. Put plainly: Factor VII activity assay, in vivo liver delivery of FVII siRNA LNP. Further details: species or system mouse. As to conditions: for FVII inhib %: ~48 h. An outline of the steps: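 Female CD-1 mice (~25 g) given a single i.v. tail-vein dose of FVII siRNA in LNPs (cationic, stealth, neutral lipids), dosed as mg siRNA/kg. Plasma collected ~48 h post-injection; FVII activity read against a standard curve from pooled vehicle-control plasma.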

Series [2] in a line: Particle size and PDI by dynamic light scattering (Malvern Zetasizer). It is filed as physicochemical. The gist of the method:
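Nanoparticles diluted in PBS to a count rate of about 200-400 kcts and measured by dynamic light scattering; size given as intensity-weighted average diameter, with polydispersity index from the same measurement.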

Setting [3] is: dose 3 mg/kg siRNA i.v., lipid/DSPC/CHOL/AVANTI 880150P 50/28/18/4, N/P 3.43.
Setting [4] is: dose 3 mg/kg siRNA i.v., lipid/no neutral lipid/CHOL/AVANTI 880150P 50/0/46/4, N/P 3.43.
[5] abbreviates: lipid/DSPC/CHOL/AVANTI 880150P 50/28/18/4, N/P 3.43.
The mark [6] stands for this setting: lipid/no neutral lipid/CHOL/AVANTI 880150P 50/0/46/4, N/P 3.43.
Where [7] appears, read: lipid/no neutral lipid/CHOL/GM-020 NOF 60/0/36/4, N/P 3.

“And” between values parts separate entries of the source, which are not always exact repeats. Equal values may be shown once. Read-outs that look alike come from different tables or passages of the source.

`CCCCC/C=C\C/C=C\CCCCCCCCOCC(CN1CC2CCCN(C(=O)OC(C)(C)C)C2C1)OCCOCCO[C@H]1CC[C@@]2(C)C(=CCC3C2CC[C@@]2(C)C3CC[C@@H]2[C@H](C)CCCC(C)C)C1` (some centres unmarked) [E0041] had a pKa in series [1] (pKa) of 4.8. The FVII inhib % is on record as −7.4% with Factor VII (setting [3]) and 17.6% in the series on Factor VII (setting [4]). Moreover, the figures for the “Final size (nm)” value in series [2] (setting [5]) and in series [2] (setting [6]) were 95 nm and 93 nm, respectively. The PDI in series [2] (setting [5]) was 0.37; in series [2] (setting [6]), 0.21.

As to `CCCCC/C=C\C/C=C\CCCCCCCCOCC(CN1CCCC[C@@H]1C)OCCOCCO[C@H]1CC[C@@]2(C)C(=CCC3C2CC[C@@]2(C)C3CC[C@@H]2[C@H](C)CCCC(C)C)C1` (some centres unmarked) [E0019], the pKa in series [1] (pKa) was found to be 6.75. Further, the FVII inhib % is 33.7% with Factor VII (dose 1 mg/kg siRNA i.v., lipid/no neutral lipid/CHOL/AVANTI 880150P 50/0/46/4, N/P 3.43); 76.7% in the series with Factor VII (setting [3]); 85.2% in the series on Factor VII (setting [4]). Besides, the “Final size (nm)” value is 143 nm in series [2] (setting [5]); 90.5 nm and 180 nm in series [2] (setting [6]). Moreover, the PDI is 0.065 in series [2] (setting [5]); 0.164 and 0.19 in series [2] (setting [6]).

In series [1] (pKa), `CCCCC/C=C\C/C=C\CCCCCCCCOCC(CN1CC=CC1)OCCOCCO[C@H]1CC[C@@]2(C)C(=CCC3C2CC[C@@]2(C)C3CC[C@@H]2[C@H](C)CCCC(C)C)C1` (some centres unmarked) [E0032] came in with a pKa of 6.8. For the same compound, the FVII inhib % in the series on Factor VII (setting [3]) turned out to be 64.5%; in the series with Factor VII (setting [4]), 85.5%. Besides, the “Final size (nm)” value in series [2] (setting [5]) came out at 87 nm; in series [2] (setting [6]), 63 nm. Further, the PDI in series [2] (setting [5]) came to 0.18; in series [2] (setting [6]), 0.21.

Compound `CCCCC/C=C\C/C=C\CCCCCCCCOCC(CN1CCCC2CCCCC21)OCCOCCO[C@H]1CC[C@@]2(C)C(=CCC3C2CC[C@@]2(C)C3CC[C@@H]2[C@H](C)CCCC(C)C)C1` (some centres unmarked) [E0010] registered a pKa in series [1] (pKa) of 5.85. The FVII inhib % in the series on Factor VII (setting [3]) was found to be 46.8%; with Factor VII (setting [4]), 65.1%. The “Final size (nm)” value in series [2] (setting [5]) was found to be 90 nm; in series [2] (setting [6]) it was 80 nm. The PDI was 0.184 in series [2] (setting [5]) and 0.201 in series [2] (setting [6]).

For `CCCCC/C=C\C/C=C\CCCCCCCCOCC(CN1CCCCC1)OCCCCO[C@H]1CC[C@@]2(C)C(=CCC3C2CC[C@@]2(C)C3CC[C@@H]2[C@H](C)CCCC(C)C)C1` (some centres unmarked) [E0027], the pKa in series [1] amounted to 5.71; in series [1] (pKa), 5.7. In addition, the FVII inhib % with Factor VII (setting [3]) came out at 36.3%; with Factor VII (setting [4]), 30.3%. Besides, the “in vivo Factor VII inhibition” value in the series on Factor VII (formulation containing the cationic lipid, RNAi construct specific to Factor VII, liver) worked out at 30.3%. Moreover, the “Final size (nm)” value in series [2] (setting [5]) was found to be 146 nm; in series [2] (setting [6]) it was 65 nm. The PDI was 0.311 in series [2] (setting [5]) and 0.15 in series [2] (setting [6]).

`CCCCC/C=C\C/C=C\CCCCCCCCOC[C@H](CN1CCCCC1)OCCOCCO[C@H]1CC[C@@]2(C)C(=CCC3C2CC[C@@]2(C)C3CC[C@@H]2[C@H](C)CCCC(C)C)C1` (some centres unmarked) [E0043]: in series [1] (pKa), the pKa turned out to be 6.33. The FVII inhib % in the series with Factor VII (setting [3]) is given as 95.7%; with Factor VII (setting [4]), −11.7%. The “Final size (nm)” value in series [2] (setting [5]) is given as 110 nm; in series [2] (setting [6]), 76 nm. The PDI in series [2] (setting [5]) amounted to 0.24; in series [2] (setting [6]), 0.15.

As for `CCCCCCCC/C=C\CCCCCCCCOCC(CN1CCCCC1)OCCOCCO[C@H]1CC[C@@]2(C)C(=CC[C@H]3[C@@H]4CC[C@H]([C@H](C)CCCC(C)C)[C@@]4(C)CC[C@@H]32)C1` (some centres unmarked) [E0063], the pKa in series [1] (pKa) turned out to be 6.48. For the same compound, the FVII inhib % with Factor VII (dose 1 mg/kg siRNA i.v., lipid/no neutral lipid/CHOL/GM-020 NOF 60/0/36/4, N/P 3) was found to be 33.3%. Besides, in series [2] (setting [7]), the “Final size (nm)” value is 155.5 nm and the PDI worked out at 0.09.

Consider `CCCCC/C=C\C/C=C\CCCCCCCCOCC(CN1CCCC(C)C1)OCCOCCO[C@H]1CC[C@@]2(C)C(=CCC3C2CC[C@@]2(C)C3CC[C@@H]2[C@H](C)CCCC(C)C)C1` (some centres unmarked) [E0023], for which the pKa in series [1] (pKa) came to 5.85. Also, the figures for the FVII inhib % with Factor VII (setting [3]) and in the series on Factor VII (setting [4]) were 59.1% and 68%, respectively. Further, the “Final size (nm)” value in series [2] (setting [5]) stood at 95 nm; in series [2] (setting [6]) it was 99 nm. In addition, the PDI in series [2] (setting [5]) amounted to 0.221; in series [2] (setting [6]) it was 0.122.
